Assay results published in paper PMC4113732, “Novel Preclinical and Radiopharmaceutical Aspects of [^68Ga]Ga-PSMA-HBED-CC: A New PET Tracer for Imaging of Prostate Cancer” (Pharmaceuticals, 2014).

Biological target: T1, prostate-specific membrane antigen (PSMA) (Homo sapiens, UniProt Q04609)
T1 construct: gene FOLH1
Test: competitive radioligand binding on intact PSMA-expressing LNCaP cells against [^[…]]Ga-PSMA-HBED-CC
Type: cell-based

T1 sequence (Q04609 whole entry): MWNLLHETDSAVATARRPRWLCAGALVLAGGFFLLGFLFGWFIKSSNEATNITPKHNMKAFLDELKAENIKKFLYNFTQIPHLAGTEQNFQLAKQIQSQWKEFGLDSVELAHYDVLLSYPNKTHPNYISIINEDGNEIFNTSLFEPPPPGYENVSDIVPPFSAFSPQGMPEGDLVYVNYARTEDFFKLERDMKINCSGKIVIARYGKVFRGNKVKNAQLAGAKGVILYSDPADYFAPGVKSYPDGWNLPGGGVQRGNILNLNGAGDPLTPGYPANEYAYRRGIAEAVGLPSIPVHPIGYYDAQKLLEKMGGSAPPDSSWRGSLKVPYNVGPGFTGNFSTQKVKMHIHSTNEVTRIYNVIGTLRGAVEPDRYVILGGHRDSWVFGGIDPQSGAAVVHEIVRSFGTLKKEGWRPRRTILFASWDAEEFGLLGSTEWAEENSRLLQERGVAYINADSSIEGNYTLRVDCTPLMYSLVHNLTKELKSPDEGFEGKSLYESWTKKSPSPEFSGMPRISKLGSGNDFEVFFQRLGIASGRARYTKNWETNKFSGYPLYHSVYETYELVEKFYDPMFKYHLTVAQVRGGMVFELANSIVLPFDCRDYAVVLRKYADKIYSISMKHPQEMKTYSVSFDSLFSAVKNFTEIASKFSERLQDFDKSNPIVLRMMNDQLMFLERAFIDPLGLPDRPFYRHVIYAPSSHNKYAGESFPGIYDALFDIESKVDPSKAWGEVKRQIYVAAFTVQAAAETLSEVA

O=C(O)CCc1ccc2c(c1)CN1CCN(CC(=O)O)Cc3cc(CCC(=O)NCCCCCC(=O)NCCCC[C@H](NC(=O)N[C@@H](CCC(=O)O)C(=O)O)C(=O)O)ccc3[O][Ga]([O]C(=O)C1)[O]2 [[^natGa]Ga-PSMA-HBED-CC]
IC50: 24.8 ± 1.2 nM
